Consider 13 molecules from patent US20250270619A1, “COMPOSITIONS, KITS AND METHODS FOR DIRECT AMPLIFICATION FROM CRUDE BIOLOGICAL SAMPLES” (LIFE TECHNOLOGIES CORPORATION, priority 2021, published 2025).

For this test, the system named is SARS-Cov-2 virus particles. Nature of the test: RT-qPCR screening of surfactant treatment solutions for disruption of SARS-CoV-2 virus particles. The note with it: for effect of heating the virus-surfactant mixture on Cq values (compatibility with RT-qPCR): then 92° C. for 5 minutes.
Setting [1] is: Example 1, 2X concentration per surfactant, 30 minutes ambient, without heating.
[2] abbreviates: Example 2, surfactant 0.02-0.08%, absence of a heating step.

Regarding `C[C@H](CCC(=O)NCCC[N+](C)(C)CC(O)CS(=O)(=O)[O-])[C@H]1CC[C@H]2[C@@H]3[C@H](O)C[C@@H]4C[C@H](O)CC[C@]4(C)[C@H]3C[C@H](O)[C@]12C` (stereo partly drawn) [CHAPSO, 3-[(3-cholamidopropyl)dimethylammonio]-2-hydroxy-1-propanesulfonate], the “disruption of virus particles (Cq vs virus in Tris-EDTA buffer)” value under setting [1] is listed as “ineffective at disrupting the virus particles”. For the same molecule, the “effect of heating the virus-surfactant mixture on Cq values (compatibility with RT-qPCR)” value (shortened to “effect … (compatibility with RT-qPCR)”) (Example 1, 30 minutes ambient) is given as “compatible with RT-qPCR”.
Take `CCCCCCCCCC[N+](C)(C)CCCCCCCCCC.[Br-]` [DDAB, Didecyldimethylammonium bromide]: under setting [1], the “disruption of virus particles (Cq vs virus in Tris-EDTA buffer)” value is “effective at disrupting the virus particles”. Further, the “effect … (compatibility with RT-qPCR)” value (Example 1, 30 minutes ambient) is on record as “higher average Cq values”.
For `CCCCCCCCCC[N+](C)(C)C.[Br-]` [DeTAB], the “effect … (compatibility with RT-qPCR)” value (Example 1, 30 minutes ambient) is reported as “compatible with RT-qPCR”.
As for `CCCCCCCCCCCC[N+](C)(C)C.[Br-]` [DoTAB], the “disruption of virus particles (Cq vs virus in Tris-EDTA buffer)” value under setting [1] is “ineffective at disrupting the virus particles”.
Regarding `CCCCCCCCCCCC[N+](C)(C)CC.[Br-]` [EDMAB, Dodecylethyldimethylammonium bromide], the “disruption of virus particles (Cq vs virus in Tris-EDTA buffer)” value under setting [1] was “ineffective at disrupting the virus particles”. Moreover, under “Example 1, 30 minutes ambient”, the “effect … (compatibility with RT-qPCR)” value was “compatible with RT-qPCR”.
As to `CCCCCCCCCCCC[N+](C)(C)[O-]` [LDAO, N,N Dimethydodecylamine-N-oxide], the “disruption of virus particles (Cq vs virus in Tris-EDTA buffer)” value runs as follows: under setting [1], “effective at disrupting the virus particles”; under setting [2], “effective at disrupting the virus particles”. Moreover, the “virus disruption vs incubation time” value (Example 3, 0.02% LDAO solution (2X), 0 to 60 minutes room temperature, no heating) is reported as “rapidly disrupted the virus particles”.
As to `O=S(=O)([O-])CCC[n+]1ccccc1` [NDSB201], the “disruption of virus particles (Cq vs virus in Tris-EDTA buffer)” value under setting [1] is reported as “ineffective at disrupting the virus particles”.
On the same count and under the same terms, as for `CCCCCCCCCCCC(=O)OCCOCCOCCOCCOCCOCCOCCOCCOCCOCCOCCOCCOCCOCCOCCOCCOCCOCCOCCOCCOCC(OCCOCCOCCOCCOCCOCCOCCOCCOCCOCCOCCOCCOCCOCCOCCOCCOCCOCCOCCOCCO)C1OCC(OCCOCCOCCOCCOCCOCCOCCOCCOCCOCCOCCOCCOCCOCCOCCOCCOCCOCCOCCOCCO)C1OCCOCCOCCOCCOCCOCCOCCOCCOCCOCCOCCOCCOCCOCCOCCOCCOCCOCCOCCOCCO` (stereo not drawn) [Tween 20, polysorbate 20], the entry is “effective at disrupting the virus particles”.
Regarding `CCCCCCCC/C=C\CCCCCCCC(=O)OCCOCC(OCCO)C1OCC(OCCO)C1OCCO` (stereo not drawn) [Tween 80], the “disruption of virus particles (Cq vs virus in Tris-EDTA buffer)” value under setting [1] is reported as “ineffective at disrupting the virus particles”. For the setting “Example 1, 30 minutes ambient”, the “effect … (compatibility with RT-qPCR)” value is on record as “compatible with RT-qPCR”.
As for `CCCCCCCCCCCCCC[N+](C)(C)CCCS(=O)(=O)[O-]` [Zwittergent 3-14, n-Tetradecyl-N,N-dimethyl-3-ammonio-1-propanesulfonate], the “disruption of virus particles (Cq vs virus in Tris-EDTA buffer)” value by setting is: under setting [1], “effective at disrupting the virus particles”; under setting [2], “effective at disrupting the virus particles”.
On to Benzalkonium Chloride [BZK], for which the “disruption of virus particles (Cq vs virus in Tris-EDTA buffer)” value under setting [1] is “effective at disrupting the virus particles”. Also, the “effect on downstream RT-qPCR” value (Example 2, surfactant 0.08%) is “inhibitory to downstream RT-qPCR”.
For the molecule “N-(Alkyl C10-C16)-N,N-dimethylglycine betaine [Empigen BB]”, under setting [1], the “disruption of virus particles (Cq vs virus in Tris-EDTA buffer)” value is listed as “effective at disrupting the virus particles”.
Take “nonyl phenoxypolyethoxylethanol [NP-40 alternative]”: under setting [1], the “disruption of virus particles (Cq vs virus in Tris-EDTA buffer)” value is recorded as “effective at disrupting the virus particles”.
